From patent US20200138827A1, “SMALL MOLECULE MODULATORS OF HUMAN STING” (Curadev Pharma Limited, priority 2017, published 2020)
pEC50: −log10 of the molar value. Read-outs that look alike come from different tables or passages of the source.

Legend:
WT/R232 STING protein = biological target: T1, WT/R232 STING protein (Homo sapiens, UniProt Q86WV6, H232R); assay: Luciferase reporter assay in HEK293T-hSTING-Luciferase cells, WT/R232; assay type: cell-based; conditions: 20 hr stimulation, read-out: R232 Activity (EC50 range)
T1 construct: host or cells: HEK293T
T1 sequence (Q86WV6 whole entry H232R): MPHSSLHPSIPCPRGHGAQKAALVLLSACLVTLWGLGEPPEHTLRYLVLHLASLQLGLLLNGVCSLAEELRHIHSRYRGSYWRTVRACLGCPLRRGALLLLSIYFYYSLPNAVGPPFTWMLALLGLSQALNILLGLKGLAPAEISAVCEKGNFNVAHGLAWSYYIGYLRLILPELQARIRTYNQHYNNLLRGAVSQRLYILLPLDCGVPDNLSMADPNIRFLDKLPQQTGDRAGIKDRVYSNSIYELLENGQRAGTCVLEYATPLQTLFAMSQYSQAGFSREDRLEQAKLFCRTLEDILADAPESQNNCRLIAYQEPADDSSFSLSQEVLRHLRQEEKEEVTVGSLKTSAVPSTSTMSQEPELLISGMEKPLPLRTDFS
Procedure, shortened: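 Clonal HEK293T cells stably expressing human STING R232 plus an ISRE/ISG54-driven luciferase reporter, 5×10^5 per well, stimulated with compounds for 20 h. Secreted luciferase in supernatant measured by luminescence; […].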

IRF pathway = assay: Reporter gene expression assay in THP1-Dual cells, IRF axis (secreted Lucia luciferase); assay type: cell-based, human; conditions: read-out: THP-IRF activity (EC50 range)
Description: (§1) THP1-Dual™ cells (Invivogen) were derived from the human THP-1 monocyte cell line by stable integration of two inducible reporter constructs. As a result, THP1-Dual™ cells allow the simultaneous study of the NF-κB pathway, by monitoring the activity of secreted SEAP, and the IRF pathway, by assessing the activity of a secreted luciferase (Lucia). […] THP1-Dual™ cells were seeded in 384-well plates in growth medium and stimulated with novel compounds. After […] of stimulation supernatant were removed and reporter proteins were readily measured in the cell culture supernatant using QUANTI-Blue™ (Invivogen), a SEAP detection reagent, and QUANTI-Luc™ (Invivogen), a luciferase detection reagent on a Spectramax i3X luminometer.

NF-κB pathway = assay: Reporter gene expression assay in THP1-Dual cells, NFkB axis (secreted SEAP); assay type: cell-based, human; conditions: read-out: THP-NFKB activity (EC50 range)
Description: as §1

| Structure (SMILES) | pEC50 (WT/R232 STING protein) | further results |
| --- | --- | --- |
| CC1Sc2ccc(C(=O)NCc3c(F)cc(F)cc3F)cc2N(Cc2ccccc2F)C1=O (stereo not shown) [Example 140, 4-(2-fluorobenzyl)-2-methyl-3-oxo-N-(2,4,6-trifluorobenzyl)-3,4-dihydro-2H-benzo[b-1,4]thiazine-6-carboxamide] | > 6.00 | pEC50 (IRF pathway; Homo sapiens, THP1-Dual): 5.00 to 6.00; pEC50 (NF-κB pathway; Homo sapiens, THP1-Dual): 5.00 to 6.00 |
| CC1(CCl)Sc2ccc(C(=O)NCc3ccc(F)cc3F)cc2N(Cc2c(F)cccc2Cl)C1=O (stereo not shown) [Example 150, 4-(2-chloro-6-fluorobenzyl)-2-(chloromethyl)-N-(2,4-difluorobenzyl)-2-methyl-3-oxo-3,4-dihydro-2H-benzo[b][1,4] thiazine-6-carboxamide] | – | pEC50 (IRF pathway): 5.00 to 6.00; pEC50 (NF-κB pathway): 5.00 to 6.00 |
| CC1Sc2ccc(C(=O)NCc3c(F)cc(F)cc3F)cc2N(Cc2c(F)ccc(O)c2Cl)C1=O (stereo not shown) [Example 155, 4-(2-chloro-6-fluoro-3-hydroxybenzyl)-2-methyl-3-oxo-N-(2,4,6-trifluorobenzyl)-3,4-dihydro-2H-benzo[b][1,4] thiazine-6-carboxamide] | > 6.00 | – |
| Cc1cc2c(cc1C(=O)NCc1ccco1)N(Cc1ccccc1)C(=O)CS2 [Example 230, 4-Benzyl-N-(furan-2-ylmethyl)-7-methyl-3-oxo-3,4-dihydro-2H-benzo[b-1,4]thiazine-6-carboxamide] | < 5.00 | – |
| O=C(NCc1ccco1)c1cc2c(cc1C1CC1)SCC(=O)N2Cc1ccccc1F [Example 229, 7-cyclopropyl-4-(2-fluorobenzyl)-N-(furan-2-ylmethyl)-3-oxo-3,4-dihydro-2H-benzo[b-1,4]thiazine-6-carboxamide] | < 5.00 | – |
| O=C(NCc1ccco1)c1ccc2c(c1)N(Cc1nc3ccccc3o1)C(=O)CS2 [Example 7] | < 5.00 | – |
| O=C(NCc1cnccn1)c1ccc2c(c1)N(Cc1ccccc1)C(=O)CS2 [Example 58, 4-benzyl-3-oxo-N-(pyrazin-2-ylmethyl)-3,4-dihydro-2H-benzo[b-1,4]thiazine-6-carboxamide] | < 5.00 | – |
| O=C(NCc1c(F)cc(F)cc1F)c1cc(CCO)c2c(c1)N(Cc1ccc(F)cc1)C(=O)CS2 [Example 222, 4-(4-fluorobenzyl)-8-(2-hydroxyethyl)-3-oxo-N-(2,4,6-trifluorobenzyl)-3,4-dihydro-2H-benzo[b][1,4] thiazine-6-carboxamide] | < 5.00 | – |
| O=C(NCc1ccc2ccccc2c1)c1ccc2c(c1)N(Cc1ccccc1)C(=O)CS2 [Example 74, 4-benzyl-N-(naphthalen-2-ylmethyl)-3-oxo-3,4-dihydro-2H-benzo[b-1,4]thiazine-6-carboxamide] | 5.00 to 6.00 | – |
| Cc1ccc(CNC(=O)c2ccc3c(c2)N(Cc2ccccc2)C(=O)CS3)o1 [Example 62, 4-benzyl-N-((5-methylfuran-2-yl)methyl)-3-oxo-3,4-dihydro-2H-benzo[b-1,4]thiazine-6-carboxamide] | 5.00 to 6.00 | – |
| CC1Sc2ncc(C(=O)NCc3cnn(C)c3)cc2N(Cc2cc(F)cc(F)c2)C1=O (stereo not shown) [Example 216, 1-(3,5-difluorobenzyl)-3-methyl-N-((1-methyl-1H-pyrazol-4-yl)methyl)-2-oxo-2,3-dihydro-1H-pyrido[2,3-b][1,4] thiazine-7-carboxamide] | < 5.00 | – |
| COc1cc(F)c(CN2C(=O)CSc3ccc(C(=O)NCc4c(F)cc(F)cc4F)cc32)c(F)c1 [Example 114, 4-(2,6-difluoro-4-methoxybenzyl)-3-oxo-N-(2,4,6-trifluorobenzyl)-3,4-dihydro-2H-benzo[b][1,4] thiazine-6-carboxamide] | > 6.00 | – |
| O=C(NCc1ccco1)c1ccc2c(c1)N(Cc1nc3ccccc3s1)C(=O)CS2 [Example 6, 4-(benzo[d]thiazol-2-ylmethyl)-N-(furan-2-ylmethyl)-3-oxo-3,4-dihydro-2H-benzo[b-1,4]thiazine-6-carboxamide] | < 5.00 | – |
| O=C(NCc1ncccn1)c1ccc2c(c1)N(Cc1ccccc1)C(=O)CS2 [Example 54, 4-benzyl-3-oxo-N-(pyrimidin-2-ylmethyl)-3,4-dihydro-2H-benzo[b-1,4]thiazine-6-carboxamide] | < 5.00 | – |
| O=C(NCc1c(F)cc(F)cc1F)c1ccc2c(c1)N(C(C(=O)O)c1ccccc1)C(=O)CS2 (stereo not shown) [Example 113, 2-(3-oxo-6-((2,4,6-trifluorobenzyl)carbamoyl)-2H-benzo[b][1,4]thiazin-4(3H)-yl)-2-phenylacetic acid] | < 5.00 | – |
| CC1(CO)Sc2ncc(C(=O)NCc3cc4ccccc4o3)cc2N(Cc2cc(F)cc(F)c2)C1=O (stereo not shown) [Example 210, N-(benzofuran-2-ylmethyl)-1-(3,5-difluorobenzyl)-3-(hydroxymethyl)-3-methyl-2-oxo-2,3-dihydro-1H-pyrido[2,3-b] [1,4] thiazine-7-carboxamide] | < 5.00 | – |
| O=C(NCc1cccnc1)c1ccc2c(c1)N(Cc1c(F)cccc1Cl)C(=O)CS2 [Example 109, 4-(2-chloro-6-fluorobenzyl)-3-oxo-N-(pyridin-3-ylmethyl)-3,4-dihydro-2H-benzo[b-1,4]thiazine-6-carboxamide] | < 5.00 | – |
| O=C(CN1CCSc2ccc(C(=O)NCc3ccco3)cc21)c1ccccc1 [Example 249, N-(furan-2-ylmethyl)-4-(2-oxo-2-phenylethyl)-3,4-dihydro-2H-benzo[b][1,4]thiazine-6-carboxamide] | < 5.00 | – |
| CC1(CO)Sc2ncc(C(=O)NCc3c(F)cc(F)cc3F)cc2N(Cc2cc(F)cc(F)c2)C1=O (stereo not shown) [Example 211, 1-(3,5-difluorobenzyl)-3-(hydroxymethyl)-3-methyl-2-oxo-N-(2,4,6-trifluorobenzyl)-2,3-dihydro-1H-pyrido [2,3-b] [1,4]thiazine-7-carboxamide] | < 5.00 | – |
| O=C(CN1C(=O)CSc2ccc(C(=O)NCc3ccco3)cc21)Nc1ccccc1 [Example 5, N-(furan-2-ylmethyl)-3-oxo-4-(2-oxo-2-(phenylamino)ethyl)-3,4-dihydro-2H-benzo[b-1,4]thiazine-6-carboxamide] | < 5.00 | – |
| O=C(NCc1ccccn1)c1ccc2c(c1)N(Cc1c(F)cccc1Cl)C(=O)CS2 [Example 108, 4-(2-chloro-6-fluorobenzyl)-3-oxo-N-(pyridin-2-ylmethyl)-3,4-dihydro-2H-benzo[b-1,4]thiazine-6-carboxamide] | < 5.00 | – |
| N#Cc1ccc(CNC(=O)c2ccc3c(c2)N(Cc2ccccc2)C(=O)CS3)cc1 [Example 71, 4-benzyl-N-(4-cyanobenzyl)-3-oxo-3,4-dihydro-2H-benzo[b-1,4]thiazine-6-carboxamide] | 5.00 to 6.00 | – |
| O=C(NCc1c(F)cc(F)cc1F)c1ccc2c(n1)N(Cc1cc(F)cc(F)c1)C(=O)CC2 [Example 283, (3,5-difluorobenzyl)-7-oxo-N-(2,4,6-trifluorobenzyl)-5,6,7,8-tetrahydro-1,8-naphthyridine-2-carboxamide] | 5.00 to 6.00 | – |
| O=C(NCc1ccsc1)c1ccc2c(c1)N(Cc1ccccc1)C(=O)CS2 [Example 61, 4-benzyl-3-oxo-N-(thiophen-3-ylmethyl)-3,4-dihydro-2H-benzo[b-1,4]thiazine-6-carboxamide] | 5.00 to 6.00 | – |
| O=C(NCc1ccc(C(F)(F)F)cc1)c1ccc2c(c1)N(Cc1ccccc1)C(=O)CS2 [Example 72, 4-benzyl-3-oxo-N-(4-(trifluoromethyl)benzyl)-3,4-dihydro-2H-benzo[b-1,4]thiazine-6-carboxamide] | < 5.00 | – |
| O=C(NCc1ccco1)c1ccc2c(c1)N(Cc1ccccc1C(F)(F)F)C(=O)CS2 [Example 30, N-(furan-2-ylmethyl)-3-oxo-4-(2-(trifluoro-methyl)benzyl)-3,4-dihydro-2H-benzo[b-1,4]thiazine-6-carboxamide] | < 5.00 | – |
| Cc1cccc(CN2C(=O)CSc3ccc(C(=O)NCc4ccco4)cc32)c1C [Example 12, 4-(2,3-dimethyl-benzyl)-N-(furan-2-ylmethyl)-3-oxo-3,4-dihydro-2H-benzo[b-1,4]thiazine-6-caroxamide] | 5.00 to 6.00 | – |
| O=C(NCc1ccoc1)c1ccc2c(c1)N(Cc1ccccc1)C(=O)CS2 [Example 50, 4-benzyl-N-(furan-3-ylmethyl)-3-oxo-3,4-dihydro-2H-benzo[b-1,4]thiazine-6-carboxamide] | < 5.00 | – |
